For six compounds, EC50 and CC50 results are on record in patent US10954252B1, “Inhibitors of human immunodeficiency virus replication” (ViiV HEALTHCARE UK (NO.5) LIMITED, priority 2017, dated 2021).

The test system of data set [1] is recombinant NL4-3 virus (nef section replaced with Renilla luciferase gene) in MT-2 cells. Kind of data set: HIV cell culture assay (antiviral activity, luciferase readout). The format is cell-based. The following applies: MT-2 cells infected for 4-5 days with recombinant NL4-3 luciferase virus. The method, then:
HIV cell culture assay—MT-2 cells, 293T cells and the proviral DNA clone of NL4-3 virus were obtained from the NIH AIDS Research and Reference Reagent Program. MT-2 cells were propagated in RPMI 1640 media supplemented with 10% heat inactivated fetal bovine serum (FBS), 100 μg/ml penicillin G and up to 100 units/mL streptomycin. The 293T cells were propagated in DMEM media supplemented with 10% heat inactivated FBS, 100 μg/mL penicillin G and 100 μg/mL streptomycin. A recombinant NL4-3 proviral clone, in which a section of the nef gene was replaced with the Renilla luciferase gene, was used to make the reference virus used in these studies. The recombinant virus was prepared through transfection of the recombinant NL4-3 proviral clone into 293T cells using Transit-293 Transfection Reagent from Mirus Bio LLC (Madison, Wis.). Supernatent was harvested after 2-3 days and the amount of virus present was titered in MT-2 cells using luciferase enzyme activity as a marker by measuring luciferase enzyme activity. Luciferase was quantitated using the EnduRen Live Cell Substrate from Promega (Madison, Wis.). Antiviral activities of compounds toward the recombinant virus were quantified by measuring luciferase activity in MT-2 cells infected for 4-5 days with the recombinant virus in the presence of serial dilutions of the compound.
The 50% effective concentration (ECs) was calculated by using the exponential form of the median effect equation where (Fa)=1/[1+(ED50/drug conc.)^m] (Johnson Va., Byington RT. Infectivity Assay. In Techniques in HIV Research. ed. Aldovini A, Walker BD. 71-76. New York: Stockton Press. 1990).

Data set [2] is described as follows: Compound cytotoxicity, XTT-based colorimetric assay. It counts as cell-based. The following applies: human, uninfected MT2 cells, Table 1a, day 4, XTT. How it is done: Compound cytotoxicity and the corresponding CC50 values were determined using the same protocol as described in the antiviral assay except that uninfected cells were used. Cytotoxicity was assessed on day 4 in uninfected MT2 cells by using a XTT (2,3-bis[2-Methoxy-4-nitro-5-sulfophenyl]-2H-tetrazolium-5-carboxyanilide inner salt)-based colorimetric assay (Sigma-Aldrich, St Louis, Mo.). Biological data for select compounds of the invention are contained in Table 1 and Table 1a

The structures appear in SMILES notation. A value given as a limit tells only on which side of the number the result lay.

`COc1cc(F)c2c(=O)n(-c3ccc(Cl)c4c(NS(C)(=O)=O)nn(C)c34)c([C@H](Cc3cc(F)cc(F)c3)NC(=O)Cn3nc(C(F)F)c4c3C(F)(F)[C@@H]3C[C@H]43)nc2c1` (mixture of isomers) [Example 185, N—((S)-1-(3-(4-chloro-1-methyl-3-(methylsulfonamido)-1H-indazol-7-yl)-5-fluoro-7-methoxy-4-oxo-3,4-dihydroquinazolin-2-yl)-2-(3,5-difluorophenyl)ethyl)-2-((3bS,4aR)-3-(difluoromethyl)-5,5-difluoro-3b,4,4a,5-tetrahydro-1H-cyclopropa[3,4]cyclopenta[1,2-c]pyrazol-1-yl)acetamide]: the EC50 in data set [1] (Renilla, NL43, Table 1a) came out at 87.3 nM. Moreover, the half-maximal cytotoxic concentration (CC50) at 4 days in data set [2] is > 1000 nM.

With `Cc1cc(C)c2c(=O)n(-c3ccc(Cl)c4c(NS(C)(=O)=O)nn(C)c34)c([C@H](Cc3cc(F)cc(F)c3)NC(=O)Cn3nc(C(F)F)c4c3C(F)(F)[C@@H]3C[C@H]43)nc2n1` [Example 42.2, N-[(1S)-1-[3-(4-chloro-3-methanesulfonamido-1-methyl-1H-indazol-7-yl)-5,7-dimethyl-4-oxo-3H,4H-pyrido[2,3-d]pyrimidin-2-yl]-2-(3,5-difluorophenyl)ethyl]-2-[(2S,4R)-9-(difluoromethyl)-5,5-difluoro-7,8-diazatricyclo[4.3.0.0^2,4]nona-1(6),8-dien-7-yl]acetamide], in data set [1] (Renilla, NL43, Table 1a), the EC50 is 0.016 nM. Also, in data set [2], the CC50 at 4 days is > 10000 nM.

With `CS(=O)(=O)Nc1n[nH]c2c(-c3cc4[nH]ccc4nc3[C@H](Cc3cc(F)cc(F)c3)NC(=O)Cn3nc(C(F)F)c4c3C(F)(F)[C@@H]3C[C@H]43)ccc(Cl)c12` [Example 90, N—((S)-1-(6-(4-chloro-3-(methylsulfonamido)-1H-indazol-7-yl)-1H-pyrrolo[3,2-b]pyridin-5-yl)-2-(3,5-difluorophenyl)ethyl)-2-((3bS,4aR)-3-(difluoromethyl)-5,5-difluoro-3b,4,4a,5-tetrahydro-1H-cyclopropa[3,4]cyclopenta[1,2-c]pyrazol-1-yl)acetamide], the EC50 in data set [1] (Renilla, NL43, Table 1a) is 1.48 nM. The CC50 at 4 days in data set [2] was > 10000 nM.

Take `COc1ccc2c(=O)n(-c3ccc(Cl)c4c(NS(C)(=O)=O)nn(C)c34)c([C@H](Cc3cc(F)cc(F)c3)NC(=O)Cn3nc(C(F)F)c4c3C(F)(F)[C@@H]3C[C@H]43)nc2c1F` (single isomer, unassigned) [Example 76]: in data set [1] (Renilla, NL43, Table 1a), the concentration giving a half-maximal response (EC50) is 0.118 nM. Further, the half-maximal cytotoxic concentration (CC50) at 4 days in data set [2] is > 1000 nM.

With `Cn1nc(NS(C)(=O)=O)c2c(Cl)ccc(-n3c([C@H](Cc4cc(F)cc(F)c4)NC(=O)Cn4nc(C(F)F)c5c4C(F)(F)[C@@H]4C[C@H]54)nc4cc(C5CC5)ccc4c3=O)c21` (mixture of isomers) [Example 197, N—((S)-1-(3-(4-chloro-1-methyl-3-(methylsulfonamido)-1H-indazol-7-yl)-7-cyclopropyl-4-oxo-3,4-dihydroquinazolin-2-yl)-2-(3,5-difluorophenyl)ethyl)-2-((3bS,4aR)-3-(difluoromethyl)-5,5-difluoro-3b,4,4a,5-tetrahydro-1H-cyclopropa[3,4]cyclopenta[1,2-c]pyrazol-1-yl)acetamide], the 50% effective concentration (EC50) in data set [1] (Table 1a) was found to be 42.6 nM. For the same compound, the CC50 at 4 days in data set [2] was > 1000 nM.

As for `Cn1nc(NS(C)(=O)=O)c2c(Cl)ccc(-n3c([C@H](Cc4cc(F)cc(F)c4)NC(=O)Cn4nc(C(F)F)c5c4C(F)(F)[C@@H]4C[C@H]54)nc4ccc(Cl)c(F)c4c3=O)c21` (mixture of isomers) [Example 175, N—((S)-1-(6-chloro-3-(4-chloro-1-methyl-3-(methylsulfonamido)-1H-indazol-7-yl)-5-fluoro-4-oxo-3,4-dihydroquinazolin-2-yl)-2-(3,5-difluorophenyl)ethyl)-2-((3bS,4aR)-3-(difluoromethyl)-5,5-difluoro-3b,4,4a,5-tetrahydro-1H-cyclopropa[3,4]cyclopenta[1,2-c]pyrazol-1-yl)acetamide], in data set [1] (Renilla, NL43, Table 1a), the EC50 is 10.9 nM. Further, in data set [2], the CC50 at 4 days was > 1000 nM.
